These results are taken from patent publication US11946094B2, “Combination therapies and methods of use thereof” (Augusta University Research Institute, Inc., priority 2017, dated 2024).

The subject of this data set is OVCAR-8 cells. Nature of the data set: Drug-siRNA combination screen: 346-compound anticancer library at 100 nM, CCK-8 viability. The conditions noted are these: for number of tested HDACi highly synergistic with the gene knockdown: 12 tested HDACi; for number of antagonistic/additive or highly antagonistic compounds with the gene knockdown: 346 compounds; for synergy / antagonism of drug with gene knockdowns, in words: panel of 18 siRNA knockdowns.

Where [1] appears, read: OVCAR-8, drug 100 nM plus siRNA knockdown of each of 18 genes, distance VAB−VA×VB in SD, single gene contributes at most +5 / −5, negative = synergy, positive = antagonism.
Setting [2] is: OVCAR-8, drug 100 nM, siRNA knockdown.

Entries after “also recorded” stand apart in the source; their conditions may differ. Where two headings read alike, the source gives them in different places.

In the case of “USP40: siRNA knocking down USP40; sense GGAAACUAGCUGUUAUACAtt (SEQ ID NO 35) (sense GGAAACUAGCUGUUAUACANN; antisense UGUAUAACAGCUAGUUUCCNN; listed as RNA, chemistry not given here)”, for the setting “OVCAR-8”, the “number of tested HDACi highly synergistic with the gene knockdown” value was “at least six” and the “number of antagonistic/additive or highly antagonistic compounds with the gene knockdown” value is “Twelve or fewer”.
Take `C[C@](O)(COc1ccc(C#N)cc1)C(=O)Nc1ccc(C#N)c(C(F)(F)F)c1` [Ostarine]: under setting [1], the “Score (sum of observed SD values for 18 genes)” value is −14.47 SD.
The same measure, in the same setting: the same measure for `Nc1ccc(-c2ccc3ncc4ccc(=O)n(-c5cccc(C(F)(F)F)c5)c4c3c2)cn1` [Torin 2]: −37.17 SD; for `CCN(CC)C(=S)SSC(=S)N(CC)CC` [Disulfiram]: 37.83 SD; for `CCC(CC)CC1(C(=O)Nc2ccccc2SC(=O)C(C)C)CCCCC1` [Dalcetrapid]: −31.1 SD.
`CC(=O)Nc1nc(C)c(-c2ccc(Cl)c(S(=O)(=O)NCCO)c2)s1` [PIK-93]: under setting [1], the “Score (sum of observed SD values for 18 genes)” value is −20.62 SD.
As for `Cc1c(NC(=O)OC[C@@H]2COCCN2)cn2ncnc(Nc3ccc4c(cnn4Cc4cccc(F)c4)c3)c12` [BMS-599626], under setting [1], the “Score (sum of observed SD values for 18 genes)” value is on record as −40.89 SD. Also, the “synergy / antagonism of drug with gene knockdowns, in words” value (from here on “synergy / antagonism of drug”) (OVCAR-8, drug 100 nM) is “significant synergy with nine or more genes”.
Regarding `Oc1nc(-c2ccc(C(F)(F)F)cc2)nc2c1CSCC2` [XAV-939], under setting [1], the “Score (sum of observed SD values for 18 genes)” value is given as −29.25 SD.
In the case of “SLC7A11: siRNA knocking down SLC7A11; sense GGCUGAUUUAUCUUCGAUAtt (SEQ ID NO 31) (sense GGCUGAUUUAUCUUCGAUANN; antisense UAUCGAAGAUAAAUCAGCCNN; listed as RNA, chemistry not given here)”, for the setting “OVCAR-8”, the “number of tested HDACi highly synergistic with the gene knockdown” value is listed as “at least six” and the “number of antagonistic/additive or highly antagonistic compounds with the gene knockdown” value is recorded as “Twelve or fewer”.
Turning to `NC(=O)Nc1cc(-c2cccc(F)c2)sc1C(=O)N[C@H]1CCCNC1` [AZD7762], the “Score (sum of observed SD values for 18 genes)” value under setting [1] was −43.68 SD. Moreover, the “synergy / antagonism of drug” value (OVCAR-8, drug 100 nM) is “Frequently among the top synergizing pairs; also recorded: high level of synergism”.
Take `CC[C@@H]1C(=O)N(C)c2cnc(Nc3ccc(C(=O)N[C@H]4CC[C@H](N5CCN(CC6CC6)CC5)CC4)cc3OC)nc2N1C(C)C` [Volasertib]: under setting [1], the “Score (sum of observed SD values for 18 genes)” value came out at 10.79 SD.
For the compound `c1ccc2c(-c3cnn4cc(-c5ccc(N6CCNCC6)cc5)cnc34)ccnc2c1` [LDN193189], under setting [1], the “Score (sum of observed SD values for 18 genes)” value is recorded as −28.37 SD.
Same read-out and setting: as for `CC(=O)c1c(C)c2cnc(Nc3ccc(N4CCNCC4)cn3)nc2n(C2CCCC2)c1=O` [Palbociclib], the figure is −30.45 SD.
As for `C[C@]12CC[C@@H]3c4ccc(O)cc4CC[C@H]3[C@@H]1CC[C@@H]2O` [Estradiol], the “Score (sum of observed SD values for 18 genes)” value under setting [1] was −26.58 SD.
Still for that read-out and setting: as for `C#Cc1cccc(Nc2ncnc3cc(OCCOC)c(OCCO)cc23)c1` [OSI-420], the figure is −27.08 SD.
Same read-out and setting: as for `COC(=O)c1ccc2c(c1)NC(=O)/C2=C(\Nc1ccc(N(C)C(=O)CN2CCN(C)CC2)cc1)c1ccccc1` [Nintedanib], the figure is −36.11 SD; as for `CC(C)(C)Cn1c(N)nc2ccc(-c3[nH]c(C(C)(C)C)nc3-c3ccc(F)cc3)nc21` [LY2228820], −30.98 SD; as for `CNC(=O)c1cc(COc2nnc(Nc3ccc(Cl)cc3)c3ccoc23)ccn1` [Telatinib], −5.24 SD.
As to `Nc1ccn([C@@H]2O[C@H](CO)[C@@H](O)C2(F)F)c(=O)n1` [Gemcitibine], the “Score (sum of observed SD values for 18 genes)” value under setting [1] is listed as 34.12 SD.
Consider `C[C@@H]1C[C@H]2[C@@H]3CCC4=CC(=O)C=C[C@]4(C)[C@@]3(F)[C@@H](O)C[C@]2(C)[C@@]1(O)C(=O)CO` [Dexamethasone], for which the “Score (sum of observed SD values for 18 genes)” value under setting [1] is given as −3.28 SD.
On the same count and under the same terms, as for `Nc1cccc2c1C(=O)N(C1CCC(=O)NC1=O)C2=O` (centres unmarked) [Pomalidomide], the figure is −3.4 SD; as for `CCC(=O)N1CCN(c2ccc(-n3c(=O)ccc4cnc5ccc(-c6cnc7ccccc7c6)cc5c43)cc2C(F)(F)F)CC1` [Torin 1], −32.55 SD; as for `CNC(=O)c1cc(Oc2ccc(NC(=O)Nc3cc(C(C)(C)C)nn3-c3ccc4ncccc4c3)c(F)c2)ccn1` [Rebastinib], 17.66 SD.
On to `CCc1cc(Nc2nccc(-c3c(-c4ccc(OC)c(C(=O)Nc5c(F)cccc5F)c4)nc4ccccn34)n2)c(OC)cc1N1CCC(N2CCN(S(C)(=O)=O)CC2)CC1` [GSK1904529A], for which the “Score (sum of observed SD values for 18 genes)” value under setting [1] is given as −10.83 SD.
Still for that read-out and setting: the same measure for `COc1cc(N2CCC(N3CCN(C)CC3)CC2)ccc1Nc1ncc(Cl)c(Nc2ccccc2S(=O)(=O)C(C)C)n1` [TAE684]: −35.61 SD; for `CC(C)C[C@@H](C(=O)N[C@H](C(=O)OC1CCCC1)c1ccccc1)[C@H](O)C(=O)NO` [Tosedostat]: 5.66 SD.
Turning to `CC(C)C[C@H](NC(=O)[C@@H](O)[C@H](N)Cc1ccccc1)C(=O)O` [Ubinimex], the “Score (sum of observed SD values for 18 genes)” value under setting [1] is reported as −17.36 SD.
Still for that read-out and setting: the same measure for `CC(C)n1c(/C=C/C(O)CC(O)CC(=O)O)c(-c2ccc(F)cc2)c2ccccc21` (centres unmarked) [Fluvastatin]: −20.51 SD; for `O=C(NC1CCNCC1)c1n[nH]cc1NC(=O)c1c(Cl)cccc1Cl` [AT7519]: −24.02 SD.
On to `CC(C)CC(=O)Nc1[nH]nc2c1CN(C(=O)C1CCN(C)CC1)C2(C)C` [PHA-793887], for which the “Score (sum of observed SD values for 18 genes)” value under setting [1] was −42.75 SD. Also, the “synergy / antagonism of drug” value (OVCAR-8, drug 100 nM) was “strong synergies with multiple genes”.
Take `CC(C)[C@H](C(=O)Nc1ccc(C(=O)NO)cc1)c1ccccc1` [AR-42]: the “Score (sum of observed SD values for 18 genes)” value under setting [1] is given as −36.88 SD. For the same compound, the “synergy / antagonism of drug” value (OVCAR-8, drug 100 nM) is listed as “mostly synergistic”. Also, under setting [2], the “number of genes (of 18) whose knockdown synergizes with the drug” value stood at 10 genes.
As to `O=c1cc(N2CCOCC2)oc2c(-c3ccccc3)cccc12` [LY294002], under setting [1], the “Score (sum of observed SD values for 18 genes)” value was −8.41 SD.
The same measure, in the same setting: the same measure for `Cc1cccc(Nc2nc(-c3ccncc3)cs2)c1` [STF-62247]: −24.47 SD.
As to `CC(C)OC(=O)C1=CN(C(=O)c2ccc(F)c(F)c2)CC(C)(C)c2c1[nH]c1ccccc21` [WAY-362450], the “Score (sum of observed SD values for 18 genes)” value under setting [1] was −29.97 SD.
The same measure, in the same setting: the same measure for `COc1cc2nccc(Oc3ccc(NC(=O)NC4CC4)c(Cl)c3)c2cc1C(N)=O` [Lenvatinib]: −27.5 SD; for `COc1cc(Nc2c(C#N)cnc3cc(OCCCN4CCN(C)CC4)c(OC)cc23)c(Cl)cc1Cl` [Bosutinib]: −23.5 SD.
Same read-out and setting: the same measure for `CN1CCN(c2nc(C3=C(c4c[nH]c5ccccc45)C(=O)NC3=O)c3ccccc3n2)CC1` [Sotrastaurin]: −16.11 SD.
Same read-out and setting: as for `NCCC(O)(P(=O)(O)O)P(=O)(O)O` [Pamidronate Disodium], the figure is −2.39 SD; as for `O=C(Nc1c[nH]nc1-c1nc2ccc(CN3CCOCC3)cc2[nH]1)NC1CC1` [AT9283], 12.54 SD; as for `CCc1c2c(nc3ccc(OC(=O)N4CCC(N5CCCCC5)CC4)cc13)-c1cc3c(c(=O)n1C2)COC(=O)[C@]3(O)CC.Cl` [Irinotecan HCI], −7.65 SD.
Consider `Cc1cc2c(C(C)C)c(O)c(O)c(C=O)c2c(O)c1-c1c(C)cc2c(C(C)C)c(O)c(O)c(C=O)c2c1O` [Gossypol], for which, under setting [1], the “Score (sum of observed SD values for 18 genes)” value is on record as −13.34 SD.
The same measure, in the same setting: as for `O=C(NCCCNc1nc(Nc2cccc(NC(=O)N3CCCC3)c2)ncc1I)c1cccs1` [BX-795], the figure is −14.94 SD; as for `Cl.Cl.Clc1ccc(Nc2nnc(Cc3ccncc3)c3ccccc23)cc1` [Vatalanib 2HCI], −3.51 SD.
On the same count and under the same terms, as for `Nc1cc(C(F)(F)F)c(-c2cc(N3CCOCC3)nc(N3CCOCC3)n2)cn1` [Buparlisib], the figure is 8.79 SD.
Turning to `CC[C@H](CO)Nc1nc(NCc2ccccc2)c2ncn(C(C)C)c2n1` [Seliciclib], the “Score (sum of observed SD values for 18 genes)” value is on record as −1.72 SD.
In the case of `CC(=O)Nc1cccc(-n2c(=O)n(C3CC3)c(=O)c3c(Nc4ccc(I)cc4F)n(C)c(=O)c(C)c32)c1` [Trametinib], the “Score (sum of observed SD values for 18 genes)” value under setting [1] is on record as −27.77 SD.
`CNC(=O)c1ccc(N2C(=S)N(c3ccc(C#N)c(C(F)(F)F)c3)C(=O)C2(C)C)cc1F` [Enzalutamid]: the “Score (sum of observed SD values for 18 genes)” value is −1.24 SD.
On to `CCN1CCN(Cc2ccc(-c3cc4c(N[C@H](C)c5ccccc5)ncnc4[nH]3)cc2)CC1` [NVP-AEE788], for which, under setting [1], the “Score (sum of observed SD values for 18 genes)” value is recorded as −41.08 SD.
Same read-out and setting: the same measure for `CN[C@@H](C)C(=O)N[C@H]1CN(C(=O)CC(C)C)CC[C@H]2CC[C@@H](C(=O)NC(c3ccccc3)c3ccccc3)N2C1=O` [AT406]: −38.03 SD.
On to `CS(=O)(=O)c1cccc(CNc2nc(Nc3ccc4c(c3)CCC(=O)N4)ncc2C(F)(F)F)c1` [PF 573228], for which the “Score (sum of observed SD values for 18 genes)” value under setting [1] is recorded as −28.79 SD.
On the same count and under the same terms, as for `O=C(O)c1nn(Cc2ccc(Cl)cc2Cl)c2ccccc12` [Lonidamine], the figure is −16.85 SD.
For `COc1cc2c(cc1O)CC[C@@H]1[C@@H]2CC[C@]2(C)[C@@H](O)CC[C@@H]12` [2-Methoxyestradiol], the “Score (sum of observed SD values for 18 genes)” value under setting [1] is −31.84 SD.
Regarding `COc1cc2ncnc(-n3nc(-c4ccccn4)nc3N)c2cc1OC` [CP-466722], the “Score (sum of observed SD values for 18 genes)” value under setting [1] worked out at 2.79 SD.
Consider `COc1cc2ncnc(Nc3ccc(F)c(Cl)c3)c2cc1NC(=O)/C=C/CN1CCCCC1` [Dacomitinib], for which, under setting [1], the “Score (sum of observed SD values for 18 genes)” value was -68.29 SD. For the same compound, the “number of genes (of 18) with high synergy with the drug” value under setting [2] was 15 genes.
